Test results reported in ChEMBL document CHEMBL1143045, “Tricyclic isoxazolines: identification of R226161 as a potential new antidepressant that combines potent serotonin reuptake inhibition and alpha2-adrenoceptor antagonism” (Bioorg Med Chem, 2007).
Values belong to the molecule of their own block, whether it stands above or below them. Active and inactive are the calls of the source. No cut-off for these calls is given here.

Columns and labels:
[1] = target: T1, Alpha-2B adrenergic receptor (Homo sapiens, UniProt P18089); assay: Displacement of [3H]rawolscine from human cloned adrenergic alpha-2B receptor transfected in CHO cells; assay type: cell-based
T1 sequence (P18089 whole entry): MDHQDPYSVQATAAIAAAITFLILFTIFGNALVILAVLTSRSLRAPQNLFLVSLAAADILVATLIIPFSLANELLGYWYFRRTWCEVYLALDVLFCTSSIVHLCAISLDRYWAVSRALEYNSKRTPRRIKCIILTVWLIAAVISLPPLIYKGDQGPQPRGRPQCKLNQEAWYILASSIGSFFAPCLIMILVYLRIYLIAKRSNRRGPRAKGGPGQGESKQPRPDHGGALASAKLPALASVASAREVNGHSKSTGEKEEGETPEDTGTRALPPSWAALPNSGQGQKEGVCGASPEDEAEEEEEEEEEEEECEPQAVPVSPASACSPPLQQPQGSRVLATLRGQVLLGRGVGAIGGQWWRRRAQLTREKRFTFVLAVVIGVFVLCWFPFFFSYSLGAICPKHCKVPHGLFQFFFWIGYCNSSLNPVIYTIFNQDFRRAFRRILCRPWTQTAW

[2] = target: T2, Alpha-2C adrenergic receptor (Homo sapiens, UniProt P18825); assay: Displacement of [3H]rawolscine from human cloned adrenergic Alpha-2C receptor transfected in CHO cells; assay type: cell-based
T2 sequence (P18825 whole entry): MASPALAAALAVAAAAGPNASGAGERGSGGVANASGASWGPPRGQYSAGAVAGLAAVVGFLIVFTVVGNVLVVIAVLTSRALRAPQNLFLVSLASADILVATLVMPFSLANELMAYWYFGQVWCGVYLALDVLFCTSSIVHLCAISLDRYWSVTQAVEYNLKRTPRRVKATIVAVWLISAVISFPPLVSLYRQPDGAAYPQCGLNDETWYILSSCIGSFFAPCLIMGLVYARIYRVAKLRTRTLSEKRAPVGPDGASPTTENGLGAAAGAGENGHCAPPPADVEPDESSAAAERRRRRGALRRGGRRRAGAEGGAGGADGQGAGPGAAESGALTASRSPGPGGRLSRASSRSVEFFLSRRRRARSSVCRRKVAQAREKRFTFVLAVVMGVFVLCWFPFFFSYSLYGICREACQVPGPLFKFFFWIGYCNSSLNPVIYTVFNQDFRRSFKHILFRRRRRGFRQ

[3] = target: Sodium-dependent serotonin transporter (Homo sapiens, UniProt P31645); assay: Displacement of [3H]paroxetine from human cloned 5HTT receptor transfected in CHO cells; assay type: cell-based
[4] = target: T3, Adrenergic receptor alpha-2 (Rattus norvegicus) (UniProt P22086+P19328+P22909); assay: Reversal of medetomidine-induced loss of righting reflex in sc dosed Wistar rat after 1hr; assay type: functional, organism-based
[5] = target: T3, Adrenergic receptor alpha-2 (Rattus norvegicus); assay: Reversal of medetomidine-induced loss of righting reflex in po dosed Wistar rat after 1hr; assay type: functional, organism-based
[6] = target: Sodium-dependent serotonin transporter (Rattus norvegicus) (UniProt P31652); assay: Antagonism of p-chloroamphetamine-induced excitation in sc dosed Wistar rat after 1 hr; assay type: functional, organism-based
[7] = target: Sodium-dependent serotonin transporter (Rattus norvegicus) (UniProt P31652); assay: Antagonism of p-chloroamphetamine-induced excitation in po dosed Wistar rat after 1 hr; assay type: functional, organism-based
[8] = target: Sodium-dependent serotonin transporter (Rattus norvegicus) (UniProt P31652); assay: Antagonism of p-chloroamphetamine-induced 5HT depletion in sc dosed Wistar rat prefrontal cortex after 1 hr; assay type: functional, organism-based
[9] = target: Sodium-dependent serotonin transporter (Rattus norvegicus) (UniProt P31652); assay: Antagonism of p-chloroamphetamine-induced 5HT depletion in po dosed Wistar rat prefrontal cortex after 1 hr; assay type: functional, organism-based
[10] = target: T4, Alpha-2A adrenergic receptor (Homo sapiens, UniProt P08913); assay: Displacement of [3H]rawolscine from human cloned adrenergic alpha2A receptor transfected in CHO cells; assay type: cell-based
T4 sequence (P08913 whole entry): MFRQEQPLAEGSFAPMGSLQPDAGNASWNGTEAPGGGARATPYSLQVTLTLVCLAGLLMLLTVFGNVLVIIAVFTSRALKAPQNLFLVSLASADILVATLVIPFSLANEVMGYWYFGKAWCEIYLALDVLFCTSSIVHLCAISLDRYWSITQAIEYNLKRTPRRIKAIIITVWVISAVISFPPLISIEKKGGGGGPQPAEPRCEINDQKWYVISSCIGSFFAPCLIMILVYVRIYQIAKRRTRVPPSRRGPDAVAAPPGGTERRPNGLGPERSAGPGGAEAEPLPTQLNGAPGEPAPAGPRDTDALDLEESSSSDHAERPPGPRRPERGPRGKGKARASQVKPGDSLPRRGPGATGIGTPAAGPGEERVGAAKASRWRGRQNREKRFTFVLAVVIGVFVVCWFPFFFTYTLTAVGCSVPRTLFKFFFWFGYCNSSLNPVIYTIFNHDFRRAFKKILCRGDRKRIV

[11] = target: T5, Alpha-1A adrenergic receptor (Homo sapiens, UniProt P35348); assay: Displacement of [3H]prazosin from human cloned alpha-1A receptor
T5 sequence (P35348 whole entry): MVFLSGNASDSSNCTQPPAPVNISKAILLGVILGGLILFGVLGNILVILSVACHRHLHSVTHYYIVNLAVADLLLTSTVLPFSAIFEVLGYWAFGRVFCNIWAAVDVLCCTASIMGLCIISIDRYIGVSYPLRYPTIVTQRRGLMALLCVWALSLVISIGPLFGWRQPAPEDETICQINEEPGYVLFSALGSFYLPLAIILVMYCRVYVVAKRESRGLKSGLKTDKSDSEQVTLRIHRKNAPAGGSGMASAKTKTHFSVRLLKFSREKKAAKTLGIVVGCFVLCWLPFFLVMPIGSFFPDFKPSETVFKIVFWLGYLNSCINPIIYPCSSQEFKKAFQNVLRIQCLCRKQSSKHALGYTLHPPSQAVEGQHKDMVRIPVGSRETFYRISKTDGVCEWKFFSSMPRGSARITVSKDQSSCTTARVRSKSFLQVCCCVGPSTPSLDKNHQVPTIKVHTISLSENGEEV

Histamine H1 receptor = Histamine H1 receptor (Homo sapiens, UniProt P35367); assay: Displacement of [3H]pyrilamine from human cloned histamine H1 receptor
D(3) dopamine receptor = D(3) dopamine receptor (Homo sapiens, UniProt P35462); assay: Displacement of [125I]iodosulpiride from human cloned dopamine D3 receptor
Substance-P receptor = Substance-P receptor (Homo sapiens, UniProt P25103); assay: Displacement of [3H]substance P from human cloned NK1 receptor
[12] = target: Sodium-dependent dopamine transporter (Rattus norvegicus, UniProt P23977); assay: Displacement of [3H]WIN-35428 from rat DAT
[13] = target: Norepinephrine transporter (Rattus norvegicus, UniProt Q9WTR4); assay: Displacement of [3H]nisoxetine from rat NET
[14] = target: T6, Alpha-2B adrenergic receptor (Homo sapiens) (UniProt P18089); assay: Agonist activity at human adrenergic alpha-2B receptor transfected in CHO cells by [35S]GTPgammaS binding assay; assay type: functional, cell-based
T6 sequence (whole entry): T1 sequence (P18089 whole entry)

[15] = target: T7, Alpha-2C adrenergic receptor (Homo sapiens) (UniProt P18825); assay: Agonist activity at human adrenergic Alpha-2C receptor transfected in CHO cells by [35S]GTPgammaS binding assay; assay type: functional, cell-based
T7 sequence (whole entry): T2 sequence (P18825 whole entry)

[16] = target: T6, Alpha-2B adrenergic receptor (Homo sapiens); assay: Antagonist activity at human alpha-2B receptor transfected in CHO cells by [35S]GTPgammaS binding assay; assay type: functional, cell-based
[17] = target: T7, Alpha-2C adrenergic receptor (Homo sapiens); assay: Antagonist activity at human alpha-2C receptor transfected in CHO cells by [35S]GTPgammaS binding assay; assay type: functional, cell-based
[18] = target: T3, Adrenergic receptor alpha-2 (Rattus norvegicus); assay: Receptor occupancy ex vivo by displacement of [3H]idazoxan binding from alpha-2 adrenoceptor in sc dosed Wistar rat entorhinal cortex after 1 hr; assay type: functional, organism-based
[19] = target: T3, Adrenergic receptor alpha-2 (Rattus norvegicus); assay: Receptor occupancy ex vivo by displacement of [3H]idazoxan binding from alpha-2 adrenoceptor in po dosed Wistar rat entorhinal cortex after 1 hr; assay type: functional, organism-based
[20] = target: T3, Adrenergic receptor alpha-2 (Rattus norvegicus); assay: Reversal of medetomidine-induced loss of righting reflex in sc dosed Wistar rat after 0.5 hrs; assay type: functional, organism-based
[21] = target: T3, Adrenergic receptor alpha-2 (Rattus norvegicus); assay: Reversal of medetomidine-induced loss of righting reflex in sc dosed Wistar rat after 1 hr; assay type: functional, organism-based
[22] = target: T3, Adrenergic receptor alpha-2 (Rattus norvegicus); assay: Reversal of medetomidine-induced loss of righting reflex in sc dosed Wistar rat after 2 hrs; assay type: functional, organism-based
[23] = target: T3, Adrenergic receptor alpha-2 (Rattus norvegicus); assay: Reversal of medetomidine-induced loss of righting reflex in sc dosed Wistar rat after 4 hrs; assay type: functional, organism-based
[24] = target: T3, Adrenergic receptor alpha-2 (Rattus norvegicus); assay: Reversal of medetomidine-induced loss of righting reflex in sc dosed Wistar rat after 8 hrs; assay type: functional, organism-based
[25] = target: T3, Adrenergic receptor alpha-2 (Rattus norvegicus); assay: Reversal of medetomidine-induced loss of righting reflex in sc dosed Wistar rat after 16 hrs; assay type: functional, organism-based
[26] = target: T3, Adrenergic receptor alpha-2 (Rattus norvegicus); assay: Reversal of medetomidine-induced loss of righting reflex in sc dosed Wistar rat after 32 hrs; assay type: functional, organism-based
[27] = target: T3, Adrenergic receptor alpha-2 (Rattus norvegicus); assay: Reversal of medetomidine-induced loss of righting reflex in po dosed Wistar rat after 0.5 hrs; assay type: functional, organism-based
[28] = target: T3, Adrenergic receptor alpha-2 (Rattus norvegicus); assay: Reversal of medetomidine-induced loss of righting reflex in po dosed Wistar rat after 1 hr; assay type: functional, organism-based
[29] = target: T3, Adrenergic receptor alpha-2 (Rattus norvegicus); assay: Reversal of medetomidine-induced loss of righting reflex in po dosed Wistar rat after 2 hrs; assay type: functional, organism-based
[30] = target: T3, Adrenergic receptor alpha-2 (Rattus norvegicus); assay: Reversal of medetomidine-induced loss of righting reflex in po dosed Wistar rat after 4 hrs; assay type: functional, organism-based
[31] = target: T3, Adrenergic receptor alpha-2 (Rattus norvegicus); assay: Reversal of medetomidine-induced loss of righting reflex in po dosed Wistar rat after 8 hrs; assay type: functional, organism-based
[32] = target: T3, Adrenergic receptor alpha-2 (Rattus norvegicus); assay: Reversal of medetomidine-induced loss of righting reflex in po dosed Wistar rat after 16 hrs; assay type: functional, organism-based

Chain of Sodium-dependent serotonin transporter (Rattus norvegicus) (P31652 whole entry): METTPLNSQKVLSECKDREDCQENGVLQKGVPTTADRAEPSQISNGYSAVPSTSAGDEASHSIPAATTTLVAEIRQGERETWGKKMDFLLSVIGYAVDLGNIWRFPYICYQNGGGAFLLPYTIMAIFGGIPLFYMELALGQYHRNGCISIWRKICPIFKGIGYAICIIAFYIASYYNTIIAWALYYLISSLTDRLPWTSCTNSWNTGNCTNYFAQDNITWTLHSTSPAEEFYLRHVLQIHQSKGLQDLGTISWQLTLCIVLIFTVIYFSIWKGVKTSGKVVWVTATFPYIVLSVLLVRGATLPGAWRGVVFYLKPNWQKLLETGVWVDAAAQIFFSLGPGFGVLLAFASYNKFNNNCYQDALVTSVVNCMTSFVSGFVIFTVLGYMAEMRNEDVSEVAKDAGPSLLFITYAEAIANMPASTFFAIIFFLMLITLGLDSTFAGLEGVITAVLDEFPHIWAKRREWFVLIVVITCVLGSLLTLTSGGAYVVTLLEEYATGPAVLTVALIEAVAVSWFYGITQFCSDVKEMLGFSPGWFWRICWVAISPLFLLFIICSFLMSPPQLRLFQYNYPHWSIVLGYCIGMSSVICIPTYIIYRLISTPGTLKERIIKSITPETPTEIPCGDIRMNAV
Chain of Sodium-dependent serotonin transporter (P31645 whole entry): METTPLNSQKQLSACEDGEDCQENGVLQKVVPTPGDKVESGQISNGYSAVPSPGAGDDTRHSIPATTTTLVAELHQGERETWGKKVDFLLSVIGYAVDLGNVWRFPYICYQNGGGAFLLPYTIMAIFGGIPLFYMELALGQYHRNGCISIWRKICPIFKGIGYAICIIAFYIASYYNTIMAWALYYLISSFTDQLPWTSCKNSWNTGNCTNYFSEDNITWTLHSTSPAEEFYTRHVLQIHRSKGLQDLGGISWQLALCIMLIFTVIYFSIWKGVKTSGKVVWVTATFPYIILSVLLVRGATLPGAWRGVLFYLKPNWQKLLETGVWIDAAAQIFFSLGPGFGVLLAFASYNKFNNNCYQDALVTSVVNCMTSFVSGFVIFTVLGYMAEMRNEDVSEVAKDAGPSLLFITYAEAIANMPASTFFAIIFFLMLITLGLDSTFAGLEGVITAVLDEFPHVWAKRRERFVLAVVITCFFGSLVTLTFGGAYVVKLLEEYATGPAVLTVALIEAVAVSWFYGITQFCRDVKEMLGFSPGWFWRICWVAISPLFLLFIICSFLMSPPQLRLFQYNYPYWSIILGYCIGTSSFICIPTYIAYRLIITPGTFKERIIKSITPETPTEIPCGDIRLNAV
Chain of Histamine H1 receptor (P35367 whole entry): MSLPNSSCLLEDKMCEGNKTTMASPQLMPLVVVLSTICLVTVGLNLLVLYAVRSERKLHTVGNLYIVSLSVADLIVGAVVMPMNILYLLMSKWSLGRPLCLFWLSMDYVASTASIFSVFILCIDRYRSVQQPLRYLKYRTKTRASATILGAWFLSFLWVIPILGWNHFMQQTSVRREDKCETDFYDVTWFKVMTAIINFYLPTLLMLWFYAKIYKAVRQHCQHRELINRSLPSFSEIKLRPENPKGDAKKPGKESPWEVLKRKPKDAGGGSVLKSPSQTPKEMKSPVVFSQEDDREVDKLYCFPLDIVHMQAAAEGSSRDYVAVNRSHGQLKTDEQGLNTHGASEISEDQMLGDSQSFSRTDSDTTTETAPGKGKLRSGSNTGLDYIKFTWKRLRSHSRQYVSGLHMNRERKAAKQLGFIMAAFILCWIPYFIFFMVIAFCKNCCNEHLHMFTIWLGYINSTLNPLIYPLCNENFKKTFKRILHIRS
Chain of Substance-P receptor (P25103 whole entry): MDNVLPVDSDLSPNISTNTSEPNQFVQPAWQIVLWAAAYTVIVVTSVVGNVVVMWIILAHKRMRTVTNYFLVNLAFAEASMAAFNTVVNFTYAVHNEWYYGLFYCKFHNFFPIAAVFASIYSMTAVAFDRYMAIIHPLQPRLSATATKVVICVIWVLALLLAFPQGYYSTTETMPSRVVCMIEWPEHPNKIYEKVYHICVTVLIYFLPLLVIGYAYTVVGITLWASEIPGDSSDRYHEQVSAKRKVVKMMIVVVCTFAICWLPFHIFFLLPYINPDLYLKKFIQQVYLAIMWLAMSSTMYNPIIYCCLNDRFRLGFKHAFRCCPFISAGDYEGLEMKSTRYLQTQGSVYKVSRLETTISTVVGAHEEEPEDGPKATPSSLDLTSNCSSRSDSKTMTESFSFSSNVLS
Chain of D(3) dopamine receptor (P35462 whole entry): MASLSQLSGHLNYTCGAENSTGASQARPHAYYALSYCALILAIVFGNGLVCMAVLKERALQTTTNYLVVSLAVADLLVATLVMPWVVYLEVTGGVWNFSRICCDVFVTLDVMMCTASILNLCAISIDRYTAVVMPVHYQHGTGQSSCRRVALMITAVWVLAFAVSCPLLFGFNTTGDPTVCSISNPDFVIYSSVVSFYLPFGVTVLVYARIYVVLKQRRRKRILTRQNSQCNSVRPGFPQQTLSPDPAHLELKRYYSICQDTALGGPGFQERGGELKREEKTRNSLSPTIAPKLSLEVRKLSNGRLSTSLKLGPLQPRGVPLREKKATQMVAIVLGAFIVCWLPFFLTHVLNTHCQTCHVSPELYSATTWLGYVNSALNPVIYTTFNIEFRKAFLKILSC
Chain of Norepinephrine transporter (Q9WTR4 whole entry): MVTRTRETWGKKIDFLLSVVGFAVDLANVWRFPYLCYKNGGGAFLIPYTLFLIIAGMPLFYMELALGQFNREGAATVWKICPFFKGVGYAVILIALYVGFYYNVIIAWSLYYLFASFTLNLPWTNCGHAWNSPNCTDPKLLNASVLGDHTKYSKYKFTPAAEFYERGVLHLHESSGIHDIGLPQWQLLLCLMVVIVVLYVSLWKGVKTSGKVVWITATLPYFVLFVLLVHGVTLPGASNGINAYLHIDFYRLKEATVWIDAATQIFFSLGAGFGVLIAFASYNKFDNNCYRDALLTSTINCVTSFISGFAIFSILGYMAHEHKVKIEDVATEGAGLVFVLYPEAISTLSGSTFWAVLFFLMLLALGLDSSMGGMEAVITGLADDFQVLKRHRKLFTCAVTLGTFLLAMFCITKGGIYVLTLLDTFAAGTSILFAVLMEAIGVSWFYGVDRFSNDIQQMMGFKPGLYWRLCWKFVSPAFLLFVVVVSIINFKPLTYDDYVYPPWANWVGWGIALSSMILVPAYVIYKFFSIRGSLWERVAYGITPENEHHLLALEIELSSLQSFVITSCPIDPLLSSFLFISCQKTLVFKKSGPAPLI
Chain of Sodium-dependent dopamine transporter (P23977 whole entry): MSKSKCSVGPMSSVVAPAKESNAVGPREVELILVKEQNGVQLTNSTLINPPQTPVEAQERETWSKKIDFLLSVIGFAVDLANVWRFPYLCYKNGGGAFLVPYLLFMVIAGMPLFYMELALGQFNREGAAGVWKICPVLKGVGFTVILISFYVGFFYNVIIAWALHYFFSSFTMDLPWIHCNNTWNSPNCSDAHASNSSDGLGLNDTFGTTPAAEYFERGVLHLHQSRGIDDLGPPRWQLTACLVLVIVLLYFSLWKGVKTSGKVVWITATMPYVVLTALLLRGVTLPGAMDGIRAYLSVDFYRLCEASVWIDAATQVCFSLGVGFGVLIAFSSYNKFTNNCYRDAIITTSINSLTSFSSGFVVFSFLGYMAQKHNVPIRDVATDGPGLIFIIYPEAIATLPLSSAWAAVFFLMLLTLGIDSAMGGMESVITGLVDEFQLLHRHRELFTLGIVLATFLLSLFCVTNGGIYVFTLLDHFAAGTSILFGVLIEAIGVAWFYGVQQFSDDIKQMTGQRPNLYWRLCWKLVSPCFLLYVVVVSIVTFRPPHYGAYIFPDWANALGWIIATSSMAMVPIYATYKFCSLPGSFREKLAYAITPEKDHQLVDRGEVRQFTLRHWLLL

Ki [1]: 4.5 nM
Ki [2]: 0.93 nM
Ki [3]: 79 nM
SMILES: COc1cc2c(cc1OC)C1=NOC(CN3CCN(C/C(C)=C/c4ccccc4)CC3)C1CN2 (single isomer, unassigned; (+)) [listing 1 of 2 here]

ED50 [4]: 0.08 mg/kg
ED50 [5]: 0.63 mg/kg
ED50 [6]: > 10 mg/kg
ED50 [7]: > 10 mg/kg
ED50 [8]: 4.1 mg/kg
SMILES: COc1cc2c(cc1OC)C1=NOC(CN3CCN(C/C(C)=C/c4ccccc4)CC3)C1CN2 (single isomer, unassigned; (+)) [listing 2 of 2 here]

ED50 [4]: 3.1 mg/kg
ED50 [5]: 3.5 mg/kg
ED50 [6]: 0.05 mg/kg
ED50 [7]: 0.32 mg/kg
ED50 [8]: 0.03 mg/kg
ED50 [9]: 0.05 mg/kg
SMILES: COc1cc2c(cc1OC)C1=NOC(CN3CCN(C/C=C/c4ccc(F)cc4)CC3)C1CO2 (single isomer, unassigned; (+))

Ki [1]: 26 nM
Ki [2]: 8.3 nM
Ki [3]: 24 nM
SMILES: COc1cc2c(cc1OC)C1=NOC(CN3CCN(C/C(C)=C/c4ccccc4)CC3)C1CN2 (single isomer, unassigned; (-)) [listing 1 of 2 here]

ED50 [4]: > 10 mg/kg
ED50 [5]: > 10 mg/kg
ED50 [6]: 0.32 mg/kg
ED50 [7]: 3.2 mg/kg
ED50 [8]: 0.81 mg/kg
SMILES: COc1cc2c(cc1OC)C1=NOC(CN3CCN(C/C(C)=C/c4ccccc4)CC3)C1CN2 (single isomer, unassigned; (-)) [listing 2 of 2 here]

Ki [10]: 3.1 nM
Ki [1]: 1.5 nM
Ki [2]: 0.27 nM
Ki [11]: 125 nM
Ki (Histamine H1 receptor): 74 nM
Ki (D(3) dopamine receptor): 375 nM
Ki (Substance-P receptor): 310 nM
Ki [12]: 583 nM
Ki [13]: 70 nM
SMILES: COc1cc2c(cc1OC)C1=NO[C@@H](CN3CCN(C/C(C)=C/c4ccc(F)cc4)CC3)[C@@H]1CO2 (stereo in doubt; form 1) [listing 1 of 2 here]

ED50 [4]: 2.7 mg/kg
ED50 [5]: 1.3 mg/kg
Activity [14]: inactive
Activity [15]: inactive
Kb [16]: 1.4 nM
Kb [17]: 0.91 nM
ED50 [18]: 2.6 mg/kg
ED50 [19]: 8.8 mg/kg
ED50 [20]: 1.2 mg/kg
ED50 [21]: 2.7 mg/kg
ED50 [22]: 4.1 mg/kg
ED50 [23]: 2.3 mg/kg
ED50 [24]: 4.7 mg/kg
ED50 [25]: 7.1 mg/kg
ED50 [26]: > 10 mg/kg
ED50 [27]: 1 mg/kg
ED50 [28]: 1.3 mg/kg
ED50 [29]: 2.7 mg/kg
ED50 [30]: 3.6 mg/kg
ED50 [31]: 9.3 mg/kg
ED50 [32]: 25 mg/kg
SMILES: COc1cc2c(cc1OC)C1=NO[C@@H](CN3CCN(C/C(C)=C/c4ccc(F)cc4)CC3)[C@@H]1CO2 (stereo in doubt; form 1) [listing 2 of 2 here]

Ki [10]: 28 nM
Ki [1]: 21 nM
Ki [2]: 10 nM
SMILES: COc1cc2c(cc1OC)C1=NO[C@@H](CN3CCN(C/C(C)=C/c4ccc(F)cc4)CC3)[C@@H]1CO2 (stereo in doubt; form 2) [listing 1 of 2 here]

ED50 [4]: 5 mg/kg
SMILES: COc1cc2c(cc1OC)C1=NO[C@@H](CN3CCN(C/C(C)=C/c4ccc(F)cc4)CC3)[C@@H]1CO2 (stereo in doubt; form 2) [listing 2 of 2 here]
